What was measured:
[1] = test system: Depigmented Generation 1 avirulent phenotype survivors (MRSA G1); experiment: Kirby-Bauer zones of inhibition (ZOI) antibiotic susceptibility assay, depigmented survivor Generation 1; for Susceptibility class (CLSI): key: R = resistant; S = susceptible; type: cell-based, S. aureus; settings: for Susceptibility class (CLSI) / Zone diameter: Depigmented Generation 1 after light dose regiment, Kirby-Bauer ZOI; for Resistance/susceptibility in words (heatmap profile, FIG. 8): MRSA G1 (Generation 1), panel 122, after light dose regiment
Procedure: (§1) Table 7 below show and example of a Clinical laboratories Science Institute (CLSI) reference table typically used by clinicians and clinical microbiology laboratories to establish whether a clinical isolate is susceptible, intermediate or resistant to a particular type of antibiotic under the Kirby-Bauer ZOI assay:
(§2) In one example, the Kirby-bauer Zones of Inhibition (Z01) assay was performed on the untreated MRSA parent strain and the two generations of the depigmented avirulent phenotype survivors susceptible to microbicides were created by applying the light dose regiment of system 10 and the method thereof discussed above based on the CLSI guidelines, See Table 8 below:
(§3) The first generation (G1) is the avirulent phenotype survivors susceptible to microbicides created by system 10 and the method thereof and the second generation (G2) is the avirulent phenotype survivors susceptible to microbicides created by system 10 and the method thereof. In this example, the ZOI for Linezolid is indicated at 90, the ZOI for Norfloxacin is indicated at 92, the ZOI for Cefprozil is indicated at 94, ZOEs 96 and 98 are blank, ZOI 100 is for Rifampin, ZIO 102 is for Oxacillin and ZOI 104 is for Tetracycline. The growth control for Generation 1 (G1), Generation 2 (G2) and the wild type (WT) is indicated at 106, 108 and 110, respectively. In this example, Methicillin Resistant, S. aureus ATCC 33592. In this example, WT is Oxacillin is considered equivalent to methicillin when describing a MRSA strain. In this example, the ZOIs were measured at 24 hours and 72-hours past-challenge. Generation 1 was serially passaged onto an antibiotic-free TSA plate, then transferred to TSB liquid culture prior to performing the ZOI assay. Generation 2 was transferred from Generation 1, serially passaged onto an antibiotic-free TSA plate, then transferred to a TSB liquid culture prior to performing the ZOI assay. […] Thus, the avirulent phenotype survivors susceptible to microbicides are stable over multiple generations.
(§4) See e.g., Clinical and Laboratory Standards Institute, Performance Standards for Antimicrobial Susceptibility Testing, 29th Edition 950 West Valley Road Suite 2500, Wayne, Pa. 19087 USA, in this example Oxacillin is synonymous with methicillin when describing MRSA.

[2] = test system: S. aureus ATCC 33592 (MRSA) Parental Wild-Type; experiment: Kirby-Bauer zones of inhibition (ZOI) antibiotic susceptibility assay, untreated MRSA parent strain; for Susceptibility class (CLSI): key: R = resistant; S = susceptible; type: cell-based; settings: for Resistance/susceptibility in words (heatmap profile, FIG. 8): Parental Wild-Type, panel 120, CLSI M100-ED29:2019; for Susceptibility class (CLSI) / Zone diameter: S. aureus ATCC 33592 (MRSA), untreated parent, Kirby-Bauer ZOI
Procedure: as §1, §2, §3, §4

[3] = test system: Depigmented Generation 2 avirulent phenotype survivors (MRSA G2); experiment: Kirby-Bauer zones of inhibition (ZOI) antibiotic susceptibility assay, depigmented survivor Generation 2; for Susceptibility class (CLSI): key: R = resistant; S = susceptible; type: cell-based, S. aureus; settings: for Susceptibility class (CLSI) / Zone diameter: Depigmented Generation 2 after light dose regiment, Kirby-Bauer ZOI; for Resistance/susceptibility in words (heatmap profile, FIG. 8): MRSA G2 (Generation 2), panel 124, after light dose regiment
Procedure: as §1, §2, §3, §4

SMILES | Susceptibility class (CLSI) [1] | Zone diameter [1] [mm] | Resistance/susceptibility in words (heatmap profile, FIG. 8) [1] | Resistance/susceptibility in words (heatmap profile, FIG. 8) [2] | Susceptibility class (CLSI) [2] | Zone diameter [2] | Susceptibility class (CLSI) [3] | Zone diameter [3] [mm] | Resistance/susceptibility in words (heatmap profile, FIG. 8) [3]
CC=CC1=C(C(=O)O)N2C(=O)[C@@H](NC(=O)[C@H](N)c3ccc(O)cc3)[C@H]2SC1 [Cefprozil] | S | 42.99 | susceptible | resistant | R | No Inhibition | S | 42.98 | susceptible
CC(=O)NC[C@H]1CN(c2ccc(N3CCOCC3)c(F)c2)C(=O)O1 [Linezolid] | S | 35.11 | – | susceptible | S | 31.33 mm | S | 32.8 | –
CCn1cc(C(=O)O)c(=O)c2cc(F)c(N3CCNCC3)cc21 [Norfloxacin] | S | 32.68 | – | susceptible | S | 27.67 mm | S | 30.17 | –
Cc1onc(-c2ccccc2)c1C(=O)N[C@@H]1C(=O)N2[C@@H]1SC(C)(C)[C@@H]2C(=O)O [Oxacillin] | S | 28.04 | susceptible | resistant | R | No Inhibition | S | 27.25 | susceptible
CO[C@H]1/C=C/O[C@@]2(C)Oc3c(C)c(O)c4c(O)c(c(/C=N/N5CCN(C)CC5)c(O)c4c3C2=O)NC(=O)/C(C)=C\C=C\[C@H](C)[C@H](O)[C@@H](C)[C@@H](O)[C@@H](C)[C@H](OC(C)=O)[C@@H]1C [Rifampin] | S | 45.04 | susceptible | resistant | R | No Inhibition | S | 48.68 | susceptible
CN(C)[C@@H]1C(O)=C(C(N)=O)C(=O)[C@@]2(O)C(O)=C3C(=O)c4c(O)cccc4[C@@](C)(O)[C@H]3C[C@@H]12 [Tetracycline] | S | 34.66 | – | – | R | – | S | 31.31 | –
